Experiments:
[1] = test system: Escherichia coli (ATCC 8739); assay: Alamar Blue reduction biocidal assay, 5 minute exposure; format: cell-based; settings: for IC50: Escherichia coli, ATCC8739, ATCC 8739, 5 min, read-out: 50% Inhibitory Concentration (IC50), E. coli, 50% inhibition of Alamar Blue reduction
Description: (§1) In this Example, the antimicrobial efficacy (in terms of IC50 data) of several different formulations against Staphylococcus aureus, Staphylococcus epidermidis, and Escherichia coli was evaluated. The formulations tested comprised a formulation based upon the present invention as well as several other formulations comprised of various organic acids and/or surfactants, as well as surfactants alone. Microorganism Preparation: Lyophilized cultures of Escherichia coli (ATCC 8739), Staphylococcus aureus (ATCC 6538), and Staphylococcus epidermidis (ATCC 12,228) were obtained from the American Type Culture Collection (ATCC) (Rockville, Md.). All three cultures were reconstituted according to ATCC specifications. Aliquots (0.5 mL) of reconstituted 24 hour broth growth were frozen and held at −80° C. until needed. Working cultures were prepared weekly by streaking a loop of frozen culture onto tryptic soy agar plates (TSA) (Becton Dickinson Microbiology Systems, Cockeysville, Md.) and then incubating overnight at 37° C. After incubation, the cultures were held at 4° C. for not more than about 5 days. One day prior to testing, a fresh TSA plate was prepared with a sterile swab to achieve a lawn of growth and incubated at 37° C. for about 24 hours. […] Cell concentrations were determined in triplicate by taking optical density readings of a sample (200 microliters) with a ThermoMax microplate reader spectrophotometer (Molecular Devices) at 650 nm. From a standard curve the appropriate volume of the PBW containing the cells was determined to prepare 1.1×10^9 CFU/mL in the PBW. Exact cell numbers were confirmed by spread plating on TSA and incubating at 37° C. Assay Protocol: To all wells of a Microflour®2 96 well microtiter plate (8 Rows by 12 Columns) (Dynex Technologies, Chantilly, Va.) was added 25 microliters of filtered, sterilized water (Millipore Continental Water Systems, Bedford Mass.). […] After mixing, 25 microliters was transferred from each well in Row A to its corresponding well in Row B to produce a new 50 microliter mixture of sample formulation and water having one half the concentration of sample formulation as that of Row A. The Row B mixtures were aspirated 3 times to thoroughly mix the sample formulation and water combination. These serial dilutions continued down the Rows until reaching Row G (for a total of 6 dilutions from the original plates in Row A). After thorough mixing of Row G well contents, 25 microliters of each well in Row G (a total of 12) was discarded to produce a Row G having 12 columns each containing 25 microliters. […] After serial dilution, bacterial cells were introduced into the wells. […] In columns 4, 5, and 6 of each Row, 25 microliters (about 2.75×10^7 cells) of Staphylococcus epidermidis as prepared above was introduced and mixed. In columns 7, 8, and 9 of each Row, 25 microliters (about 2.75×10^7 cells) of Escherichia coli as prepared above was introduced and mixed. The sample formulations as prepared above were appropriately diluted (if necessary) prior to the introduction of the sample formulations into Row A. The dilutions were made such that, after the sample formulation was introduced into Row A, and after the cells were introduced into Row A (i.e., after reducing the initial concentration of the sample formulation by 50% two times), the initial concentrations were as follows: After the addition of the cells, incubation proceeded (5 minutes) at room temperature. After the incubation period, a 1.6 M phosphate buffer (50 microliters) was added to all wells to neutralize the biocide. Then, 3×Letheen broth (50 microliters) (Difco Laboratories, Detroit, Mich.) and Alamar Blue (25 microliters at room temperature) (AccuMed International, Westlake, Ohio) were added to each well. A positive control was also utilized in the experiment. The positive control consisted of adding sterile Milli-Q water to the wells in place of sample formulation. […]

[2] = test system: Staphylococcus aureus (ATCC 6538); assay: as above; format: cell-based; settings: for IC50: Staphylococcus aureus, ATCC6538, 5 min, read-out: 50% Inhibitory Concentration (IC50), S. aureus, 50% inhibition of Alamar Blue reduction; for IC50 / 50% Inhibitory Concentration (IC50), S. aureus: 5 minutes incubation at room temperature; for 50% Inhibitory Concentration (IC50), S. aureus: 50% inhibition of Alamar Blue reduction
Description: as §1

[3] = test system: Staphylococcus epidermidis (ATCC 12,228); assay: as above; format: cell-based; settings: for IC50: Staphylococcus epidermidis, ATCC12, 5 min, read-out: 50% Inhibitory Concentration (IC50), S. epidermidis, 50% inhibition of Alamar Blue reduction
Description: as §1

[4] = test system: Human stratum corneum; settings: tape biopsies soaked 30 minutes at room temperature; against purified water controls; tested in triplicate; Sulfate
Description: Skin mildness was evaluated by measuring the damage caused by the biocide on the outer portion of the stratum corneum, and specifically the removal of the lipid component of the stratum corneum.
Human stratum corneum was harvested from adult legs using D-Squame tape biopsies (Cuderm Corporation, Dallas Tex.). Each biopsy harvested consisted of about 7 to 8 pulls from multiple sites on a subject's lower leg. After harvesting, the tapes containing the biopsies were soaked in the test biocide (2 mL) in covered six well tissue cultured dishes for 30 minutes at room temperature. Each biocide formulation was tested in triplicate in adjacent wells.
After soaking the tape strips in the biocide, the tape strips were removed and washed for 3 minutes with cold tap water, and dried at room temperature. After drying, the tape strips containing the biopsies were completely immersed in fushin-toluidine blue dye (Polychrome Multiple Stain, PMS: Delasco, Council Bluff, Iowa.) The immersion continued for 3 minutes after which the tape strips were removed and washed for 3 minutes in cold tap water. After washing, the tape strips were allowed to dry completely at room temperature.
The color of the dried samples was measured by color reflectance using a Minolta CR 5000 (Minolta, Osaka, Japan) spectrophotometer. The color measurements recorded the luminance (L*) and chromaticity through Chroma C* described by the equation (a^*2+b^*2)^½. The color differentials between test materials and controls were calculated according to: [(ΔL*)^2+(ΔC*)^2]^1/2=ΔE*ab. The measurements were taken against controls which were purified water.

[5] = 5 minutes incubation at room temperature
[6] = 50% inhibition of Alamar Blue reduction, 5 minutes incubation at room temperature, listed as #4, sulfate

SMILES	IC50 [1, 5] [µg/mL]	IC50 [2] [µg/mL]	IC50 [3, 5] [µg/mL]	ΔE*ab (color differential of dye-stained stratum corneum biopsies) [4]	also measured
O=C(O)CC(O)(CC(=O)O)C(=O)O [Biocide #1, Citric Acid]	> 6300	2200	710		
O=C(O)CC(O)C(=O)O (stereo not drawn) [Biocide #2, Malic Acid]	6000	1300	240		
CCCCCCCCCCCCOS(=O)(=O)[O-].[Na+] [Biocide #4, sodium dodecyl sulfate]	~79000		< 1000		inhibition in words, E. coli [1]: exhibited inhibition; 50% Inhibitory Concentration (IC50), E. coli [1, 6]: 79500 µg/mL; inhibition / biocidal activity in words, S. aureus [2]: exhibited inhibition; 50% Inhibitory Concentration (IC50), S. aureus ([2]; listed as #4, sulfate): 480 µg/mL; 50% Inhibitory Concentration (IC50), S. aureus ([2]; listed as sodium dodecyl sulfate, sulfate): less than 1 g/L; inhibition in words, S. epidermidis [3]: exhibited inhibition; 50% Inhibitory Concentration (IC50), S. epidermidis [3, 6]: 950 µg/mL
CCCCCCCCCCCCOS(=O)(=O)[O-].[Na+] [Formulation 4, Sodium Dodecyl Sulfate]				34.41	
CCCCCCCCCCCCOS(=O)(=O)[O-].[Na+] [Formulation 5, Sodium Dodecyl Sulfate]				20.76	
CCCCCCCCCCCCOS(=O)(=O)[O-].[Na+] [Formulation 6, Sodium Dodecyl Sulfate]				3.36	
